Patent US20230085307A1, “PYRIDAZINONE COMPOUND AND HERBICIDE” (NISSAN CHEMICAL CORPORATION, priority 2019, published 2023)

Tests used:
Japanese bulrush = assay: Test Example 2: herbicidal activity, application during weed generation under submerged conditions (Table 17, symbol B); format: in vivo, Japanese bulrush (Schoenoplectus juncoides); conditions: AAH 320 g/ha; application during weed generation, submerged conditions
Method in brief: (§1)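 In this pot test, flooded alluvial soil (water depth 4 cm) holds all three species sown as a mixture. Once seedlings have one to two leaves, the compound's emulsion, thinned with water to the intended dose, is poured on the water; grading follows after three weeks on the earlier criteria.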

green foxtail [1] = assay: Test Example 5: herbicidal effect by foliage application, plastic box (Table 20, symbol G); format: in vivo, green foxtail (Setaria viridis); conditions: foliage application, 320 g/ha, evaluated three weeks after application
Method in brief: (§2)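 Plants sown in sterilized diluvial soil and grown 14 days in a greenhouse at 25° C to 30° C, then sprayed on the foliage with the compound's emulsion diluted in water to a predetermined herbicide amount. Injury to weeds and crops scored three weeks after application on a visual rating scale.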

lambsquarters [2] = assay: Test Example 5: herbicidal effect by foliage application, plastic box (Table 20, symbol O); format: in vivo, lambsquarters (Chenopodium album); conditions: foliage application, 320 g/ha, evaluated three weeks after application
Method in brief: as §2

blackgrass [3] = assay: Test Example 5: herbicidal effect by foliage application, plastic box (Table 20, symbol J); format: in vivo, blackgrass (Alopecurus myosuroides); conditions: foliage application, 320 g/ha, evaluated three weeks after application
Method in brief: as §2

Italian ryegrass [4] = assay: Test Example 4: herbicidal effect by soil treatment (Table 19, symbol K); format: in vivo, Italian ryegrass (Lolium multiflorum); conditions: 320 g/ha
Method in brief: (§3)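 Three weeks of greenhouse growth at 25° C. to 30° C. followed a uniform surface spray of water-diluted emulsion at a predetermined herbicide amount. Seeds had been sown beforehand under about 1.5 cm of sterilized diluvial soil. Grading followed criteria set out in an earlier test.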

blackgrass [5] = assay: Test Example 4: herbicidal effect by soil treatment (Table 19, symbol J); format: in vivo, blackgrass (Alopecurus myosuroides); conditions: 320 g/ha
Method in brief: as §3

false cleavers [6] = assay: Test Example 5: herbicidal effect by foliage application, plastic box (Table 20, symbol Q); format: in vivo, false cleavers (Galium spurium); conditions: foliage application, 320 g/ha, evaluated three weeks after application
Method in brief: as §2

windgrass [7] = assay: Test Example 5: herbicidal effect by foliage application, plastic box (Table 20, symbol L); format: in vivo, windgrass (Apera spica-venti); conditions: foliage application, 320 g/ha, evaluated three weeks after application
Method in brief: as §2

southern crabgrass [8] = assay: Test Example 4: herbicidal effect by soil treatment (Table 19, symbol F); format: in vivo, southern crabgrass (Digitaria ciliaris); conditions: 320 g/ha
Method in brief: as §3

barnyard grass [9] = assay: Test Example 3: herbicidal effect by foliage application, Wagner pot (Table 18, symbol H); format: in vivo, barnyard grass (Echinochloa crus-galli); conditions: 320 g/ha
Method in brief: (§4)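 Plants were sown in alluvial soil held under 0.1–0.5 cm standing water and grown 14 days in a greenhouse at 25–30 °C. An emulsifiable formulation, water-diluted to the set dose, was then sprayed onto the foliage, and effects were scored three weeks later using previously defined criteria.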

persian speedwell [10] = assay: Test Example 5: herbicidal effect by foliage application, plastic box (Table 20, symbol R); format: in vivo, Persian speedwell (Veronica persica); conditions: foliage application, 320 g/ha, evaluated three weeks after application
Method in brief: as §2

barnyard grass [11] = assay: Test Example 4: herbicidal effect by soil treatment (Table 19, symbol H); format: in vivo, barnyard grass (Echinochloa crus-galli); conditions: 320 g/ha
Method in brief: as §3

velvetleaf [12] = assay: Test Example 5: herbicidal effect by foliage application, plastic box (Table 20, symbol M); format: in vivo, velvetleaf (Abutilon theophrasti); conditions: foliage application, 320 g/ha, evaluated three weeks after application
Method in brief: as §2

lambsquarters [13] = assay: Test Example 4: herbicidal effect by soil treatment (Table 19, symbol O); format: in vivo, lambsquarters (Chenopodium album); conditions: 320 g/ha
Method in brief: as §3

chickweed [14] = assay: Test Example 5: herbicidal effect by foliage application, plastic box (Table 20, symbol P); format: in vivo, common chickweed (Stellaria media); conditions: foliage application, 320 g/ha, evaluated three weeks after application
Method in brief: as §2

Chinese sprangletop = assay: Test Example 3: herbicidal effect by foliage application, Wagner pot (Table 18, symbol D); format: in vivo, chinese sprangletop (Leptochloa chinensis); conditions: 320 g/ha
Method in brief: as §4

late watergrass = assay: Test Example 2: herbicidal activity, application during weed generation under submerged conditions (Table 17, symbol A); format: in vivo, late watergrass (Echinochloa oryzicola); conditions: AAH 320 g/ha; application during weed generation, submerged conditions
Method in brief: as §1

persian speedwell [15] = assay: Test Example 4: herbicidal effect by soil treatment (Table 19, symbol R); format: in vivo, Persian speedwell (Veronica persica); conditions: 320 g/ha
Method in brief: as §3

oval-leafed pondweed = assay: Test Example 2: herbicidal activity, application during weed generation under submerged conditions (Table 17, symbol C); format: in vivo, oval-leafed pondweed (Monochoria vaginalis); conditions: AAH 320 g/ha; application during weed generation, submerged conditions
Method in brief: as §1

green foxtail [16] = assay: Test Example 4: herbicidal effect by soil treatment (Table 19, symbol G); format: in vivo, green foxtail (Setaria viridis); conditions: 320 g/ha
Method in brief: as §3

wild oat [17] = assay: Test Example 4: herbicidal effect by soil treatment (Table 19, symbol I); format: in vivo, wild oat (Avena fatua); conditions: 320 g/ha
Method in brief: as §3

velvetleaf [18] = assay: Test Example 4: herbicidal effect by soil treatment (Table 19, symbol M); format: in vivo, velvetleaf (Abutilon theophrasti); conditions: 320 g/ha
Method in brief: as §3

windgrass [19] = assay: Test Example 4: herbicidal effect by soil treatment (Table 19, symbol L); format: in vivo, windgrass (Apera spica-venti); conditions: 320 g/ha
Method in brief: as §3

chickweed [20] = assay: Test Example 4: herbicidal effect by soil treatment (Table 19, symbol P); format: in vivo, common chickweed (Stellaria media); conditions: 320 g/ha
Method in brief: as §3

false cleavers [21] = assay: Test Example 4: herbicidal effect by soil treatment (Table 19, symbol Q); format: in vivo, false cleavers (Galium spurium); conditions: 320 g/ha
Method in brief: as §3

wild oat [22] = assay: Test Example 5: herbicidal effect by foliage application, plastic box (Table 20, symbol I); format: in vivo, wild oat (Avena fatua); conditions: foliage application, 320 g/ha, evaluated three weeks after application
Method in brief: as §2

barnyard grass [23] = assay: Test Example 5: herbicidal effect by foliage application, plastic box (Table 20, symbol H); format: in vivo, barnyard grass (Echinochloa crus-galli); conditions: foliage application, 320 g/ha, evaluated three weeks after application
Method in brief: as §2

redroot pigweed [24] = assay: Test Example 5: herbicidal effect by foliage application, plastic box (Table 20, symbol N); format: in vivo, redroot pigweed (Amaranthus retroflexus); conditions: foliage application, 320 g/ha, evaluated three weeks after application
Method in brief: as §2

southern crabgrass [25] = assay: Test Example 5: herbicidal effect by foliage application, plastic box (Table 20, symbol F); format: in vivo, southern crabgrass (Digitaria ciliaris); conditions: foliage application, 320 g/ha, evaluated three weeks after application
Method in brief: as §2

Italian ryegrass [26] = assay: Test Example 5: herbicidal effect by foliage application, plastic box (Table 20, symbol K); format: in vivo, Italian ryegrass (Lolium multiflorum); conditions: foliage application, 320 g/ha, evaluated three weeks after application
Method in brief: as §2

redroot pigweed [27] = assay: Test Example 4: herbicidal effect by soil treatment (Table 19, symbol N); format: in vivo, redroot pigweed (Amaranthus retroflexus); conditions: 320 g/ha
Method in brief: as §3

rice flat sedge = assay: Test Example 3: herbicidal effect by foliage application, Wagner pot (Table 18, symbol E); format: in vivo, rice flat sedge (Cyperus iria); conditions: 320 g/ha
Method in brief: as §4

Compound: CCCC(=O)Oc1c(C)nn(C)c(=O)c1-c1c(-c2ccc3c(c2)OCCO3)sc2ccc(F)cc12 [2-093]
- herbicidal effect rating, B: Japanese bulrush (Japanese bulrush): 5 (Herbicidal rate of 90% or more (almost completely withered))
- herbicidal effect on G: green foxtail (green foxtail [1]): 3 (Herbicidal rate of 40% or more and less than 70%)
- herbicidal effect on O: lambsquarters (lambsquarters [2]): 5 (Herbicidal rate of 90% or more (almost completely withered))
- herbicidal effect on J: blackgrass (blackgrass [3]): 0 (Herbicidal rate of 5% or less (almost no effect))
- herbicidal effect rating, K: Italian ryegrass (Italian ryegrass [4]): 0 (Herbicidal rate of 5% or less (almost no effect))
- herbicidal effect rating, J: blackgrass (blackgrass [5]): 0 (Herbicidal rate of 5% or less (almost no effect))
- herbicidal effect on Q: false cleavers (false cleavers [6]): 4 (Herbicidal rate of 70% or more and less than 90%)
- herbicidal effect on L: windgrass (windgrass [7]): 0 (Herbicidal rate of 5% or less (almost no effect))
- herbicidal effect rating, F: southern crabgrass (southern crabgrass [8]): 3 (Herbicidal rate of 40% or more and less than 70%)
- herbicidal effect on H (barnyard grass), rating 0-5 (barnyard grass [9]): 5 (Herbicidal rate of 90% or more (almost completely withered))
- herbicidal effect on R: persian speedwell (persian speedwell [10]): 5 (Herbicidal rate of 90% or more (almost completely withered))
- herbicidal effect rating, H: barnyard grass (barnyard grass [11]): 3 (Herbicidal rate of 40% or more and less than 70%)
- herbicidal effect on M: velvetleaf (velvetleaf [12]): 5 (Herbicidal rate of 90% or more (almost completely withered))
- herbicidal effect rating, O: lambsquarters (lambsquarters [13]): 5 (Herbicidal rate of 90% or more (almost completely withered))
- herbicidal effect on P: chickweed (chickweed [14]): 5 (Herbicidal rate of 90% or more (almost completely withered))
- herbicidal effect on D (Chinese sprangletop), rating 0-5 (Chinese sprangletop): 2 (Herbicidal rate of 20% or more and less than 40%)
- herbicidal effect rating, A: late watergrass (late watergrass): 3 (Herbicidal rate of 40% or more and less than 70%)
- herbicidal effect rating, R: persian speedwell (persian speedwell [15]): 5 (Herbicidal rate of 90% or more (almost completely withered))
- herbicidal effect rating, C: oval-leafed pondweed (oval-leafed pondweed): 5 (Herbicidal rate of 90% or more (almost completely withered))
- herbicidal effect rating, G: green foxtail (green foxtail [16]): 3 (Herbicidal rate of 40% or more and less than 70%)
- herbicidal effect rating, I: wild oat (wild oat [17]): 0 (Herbicidal rate of 5% or less (almost no effect))
- herbicidal effect rating, M: velvetleaf (velvetleaf [18]): 5 (Herbicidal rate of 90% or more (almost completely withered))
- herbicidal effect rating, L: windgrass (windgrass [19]): 0 (Herbicidal rate of 5% or less (almost no effect))
- herbicidal effect rating, P: chickweed (chickweed [20]): 4 (Herbicidal rate of 70% or more and less than 90%)
- herbicidal effect rating, Q: false cleavers (false cleavers [21]): 3 (Herbicidal rate of 40% or more and less than 70%)
- herbicidal effect on I: wild oat (wild oat [22]): 0 (Herbicidal rate of 5% or less (almost no effect))
- herbicidal effect on H: barnyard grass (barnyard grass [23]): 3 (Herbicidal rate of 40% or more and less than 70%)
- herbicidal effect on N: redroot pigweed (redroot pigweed [24]): 5 (Herbicidal rate of 90% or more (almost completely withered))
- herbicidal effect on F: southern crabgrass (southern crabgrass [25]): 3 (Herbicidal rate of 40% or more and less than 70%)
- herbicidal effect on K: Italian ryegrass (Italian ryegrass [26]): 0 (Herbicidal rate of 5% or less (almost no effect))
- herbicidal effect rating, N: redroot pigweed (redroot pigweed [27]): 5 (Herbicidal rate of 90% or more (almost completely withered))
- herbicidal effect on E (rice flat sedge), rating 0-5 (rice flat sedge): 5 (Herbicidal rate of 90% or more (almost completely withered))
